Results as given in patent US20250353864A1, “INDAZOLE CONTAINING MACROCYCLES AND THEIR USE” (BLOSSOMHILL THERAPEUTICS, INC., priority 2022, published 2025).

What was measured:
Assay type in all cases: biochemical
[1] = target: EGFR Δ746-750/C797S mutant (Homo sapiens (Human), UniProt P00533, C797S/DEL746-750); experiment: HotSpot radiometric kinase assay, EGFR Δ746-750/C797S mutant; details: 10 μM ATP
Summary of the method: (§1)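 Enzyme and substrate pairs were exposed to inhibitor for roughly 20 min before radiolabelled ATP (10 μM final) was introduced; the reaction proceeded 120 min at ambient temperature in pH 7.5 buffer with 1% DMSO, and phosphorylated product was captured on P81 filters for IC50 determination.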

EGFR Δ746-750 mutant = EGFR Δ746-750 mutant (Homo sapiens (Human), UniProt P00533, DEL746-750); experiment: HotSpot radiometric kinase assay, EGFR Δ746-750 mutant; details: 10 μM ATP
Chain of EGFR Δ746-750 mutant (P00533 other isoform, or with tags, fused parts or gaps del 1-668/del 746-750 limits assumed): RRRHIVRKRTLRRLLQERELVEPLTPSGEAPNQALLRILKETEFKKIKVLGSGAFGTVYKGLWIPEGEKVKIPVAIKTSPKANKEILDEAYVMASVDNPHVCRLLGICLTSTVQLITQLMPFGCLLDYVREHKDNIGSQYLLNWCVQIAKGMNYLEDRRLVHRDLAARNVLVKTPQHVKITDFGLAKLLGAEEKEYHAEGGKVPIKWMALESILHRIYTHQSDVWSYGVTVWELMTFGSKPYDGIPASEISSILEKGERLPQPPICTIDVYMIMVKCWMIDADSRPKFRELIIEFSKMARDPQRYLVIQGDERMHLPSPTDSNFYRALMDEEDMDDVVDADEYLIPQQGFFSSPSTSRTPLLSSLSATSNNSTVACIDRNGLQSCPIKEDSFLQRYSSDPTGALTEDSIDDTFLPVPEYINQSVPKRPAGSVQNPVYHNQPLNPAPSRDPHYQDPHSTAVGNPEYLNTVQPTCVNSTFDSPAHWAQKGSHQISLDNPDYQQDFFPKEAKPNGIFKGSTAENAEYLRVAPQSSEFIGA
Summary of the method: as §1

CLK3 = CLK3 (Homo sapiens (Human), UniProt P49761); experiment: Inhibition of CLK3 kinase activity evaluated at Nanosyn (ADP-Glo); details: ADP-Glo luminescence
Summary of the method: (§2)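 Enzyme + substrate in HEPES pH 7.5/MgCl2/DTT buffer; compound dispensed acoustically, 1% DMSO. ATP start, assay-specific incubation time. ADP-Glo reagent 40 min, detection reagent 10 min, luminescence. %inh vs DMSO (0%) and no-enzyme (100%) controls.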

CLK2 = CLK2 (Homo sapiens (Human), UniProt P49760); experiment: Inhibition of CLK2 kinase activity evaluated at Nanosyn (ADP-Glo); details: ADP-Glo luminescence
Summary of the method: as §2

EGFR L858R mutant = EGFR L858R mutant (Homo sapiens (Human), UniProt P00533, L858R); experiment: HotSpot radiometric kinase assay, EGFR L858R mutant; details: 10 μM ATP
Chain of EGFR L858R mutant (P00533 25-1210 L858R): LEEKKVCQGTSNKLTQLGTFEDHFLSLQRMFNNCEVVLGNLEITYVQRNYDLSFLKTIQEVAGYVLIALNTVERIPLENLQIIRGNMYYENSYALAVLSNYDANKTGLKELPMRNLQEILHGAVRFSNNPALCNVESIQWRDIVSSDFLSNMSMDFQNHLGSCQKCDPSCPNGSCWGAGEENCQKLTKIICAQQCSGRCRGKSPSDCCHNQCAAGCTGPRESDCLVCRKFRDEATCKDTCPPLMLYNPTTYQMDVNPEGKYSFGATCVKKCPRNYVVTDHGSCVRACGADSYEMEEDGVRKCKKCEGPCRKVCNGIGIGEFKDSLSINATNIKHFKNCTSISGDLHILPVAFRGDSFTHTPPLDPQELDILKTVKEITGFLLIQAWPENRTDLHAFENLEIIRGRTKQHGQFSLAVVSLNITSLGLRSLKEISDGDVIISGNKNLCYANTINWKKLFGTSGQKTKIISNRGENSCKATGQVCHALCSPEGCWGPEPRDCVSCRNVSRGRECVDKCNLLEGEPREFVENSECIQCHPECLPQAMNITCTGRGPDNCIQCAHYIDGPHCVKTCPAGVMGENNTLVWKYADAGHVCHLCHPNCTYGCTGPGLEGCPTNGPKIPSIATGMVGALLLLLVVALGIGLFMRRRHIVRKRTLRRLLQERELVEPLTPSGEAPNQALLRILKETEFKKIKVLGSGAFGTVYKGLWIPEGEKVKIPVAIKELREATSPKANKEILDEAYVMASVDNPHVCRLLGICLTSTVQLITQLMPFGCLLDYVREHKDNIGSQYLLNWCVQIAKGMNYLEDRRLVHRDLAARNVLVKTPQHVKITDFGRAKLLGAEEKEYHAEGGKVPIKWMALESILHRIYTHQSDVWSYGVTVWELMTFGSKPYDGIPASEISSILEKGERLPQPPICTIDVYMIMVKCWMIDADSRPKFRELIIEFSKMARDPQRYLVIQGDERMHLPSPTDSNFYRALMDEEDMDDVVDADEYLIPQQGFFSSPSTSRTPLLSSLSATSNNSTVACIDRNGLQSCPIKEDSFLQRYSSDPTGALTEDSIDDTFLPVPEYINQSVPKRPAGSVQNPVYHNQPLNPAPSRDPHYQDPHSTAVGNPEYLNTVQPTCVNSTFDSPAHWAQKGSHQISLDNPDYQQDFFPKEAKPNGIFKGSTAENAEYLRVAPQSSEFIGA
Summary of the method: as §1

ALK = ALK (Homo sapiens (Human), UniProt Q9UM73); experiment: HotSpot radiometric kinase assay, inhibition of ALK kinase activity; details: 10 μM ATP
Description: Briefly, specific kinase/substrate pairs along with required cofactors were prepared in reaction buffer; 20 mM Hepes pH 7.5, 10 mM […], 1 mM EGTA, 0.02% Brij35, 0.02 mg/ml BSA, 0.1 mM Na3VO4, 2 mM DTT, 1% DMSO. Compounds were delivered into the reaction, followed […] later by addition of a mixture of ATP (Sigma, St. Louis MO) and ^33P ATP (Perkin Elmer, Waltham MA) to a final concentration of 10 μM. Reactions were carried out at room temperature for 120 min, followed by spotting of the reactions onto P81 ion exchange filter paper (Whatman Inc., Piscataway, NJ). Unbound phosphate was removed by extensive washing of filters in 0.75% phosphoric acid. […] IC50 values and curve fits were obtained using Prism (GraphPad Software).

[2] = target: EGFR L858R/T790M/C797S mutant (Homo sapiens (Human), UniProt P00533, C797S/L858R/T790M); experiment: HotSpot radiometric kinase assay, EGFR L858R/T790M/C797S mutant; details: 10 μM ATP
Chain of EGFR L858R/T790M/C797S mutant (P00533 25-1210 T790M/C797S/L858R): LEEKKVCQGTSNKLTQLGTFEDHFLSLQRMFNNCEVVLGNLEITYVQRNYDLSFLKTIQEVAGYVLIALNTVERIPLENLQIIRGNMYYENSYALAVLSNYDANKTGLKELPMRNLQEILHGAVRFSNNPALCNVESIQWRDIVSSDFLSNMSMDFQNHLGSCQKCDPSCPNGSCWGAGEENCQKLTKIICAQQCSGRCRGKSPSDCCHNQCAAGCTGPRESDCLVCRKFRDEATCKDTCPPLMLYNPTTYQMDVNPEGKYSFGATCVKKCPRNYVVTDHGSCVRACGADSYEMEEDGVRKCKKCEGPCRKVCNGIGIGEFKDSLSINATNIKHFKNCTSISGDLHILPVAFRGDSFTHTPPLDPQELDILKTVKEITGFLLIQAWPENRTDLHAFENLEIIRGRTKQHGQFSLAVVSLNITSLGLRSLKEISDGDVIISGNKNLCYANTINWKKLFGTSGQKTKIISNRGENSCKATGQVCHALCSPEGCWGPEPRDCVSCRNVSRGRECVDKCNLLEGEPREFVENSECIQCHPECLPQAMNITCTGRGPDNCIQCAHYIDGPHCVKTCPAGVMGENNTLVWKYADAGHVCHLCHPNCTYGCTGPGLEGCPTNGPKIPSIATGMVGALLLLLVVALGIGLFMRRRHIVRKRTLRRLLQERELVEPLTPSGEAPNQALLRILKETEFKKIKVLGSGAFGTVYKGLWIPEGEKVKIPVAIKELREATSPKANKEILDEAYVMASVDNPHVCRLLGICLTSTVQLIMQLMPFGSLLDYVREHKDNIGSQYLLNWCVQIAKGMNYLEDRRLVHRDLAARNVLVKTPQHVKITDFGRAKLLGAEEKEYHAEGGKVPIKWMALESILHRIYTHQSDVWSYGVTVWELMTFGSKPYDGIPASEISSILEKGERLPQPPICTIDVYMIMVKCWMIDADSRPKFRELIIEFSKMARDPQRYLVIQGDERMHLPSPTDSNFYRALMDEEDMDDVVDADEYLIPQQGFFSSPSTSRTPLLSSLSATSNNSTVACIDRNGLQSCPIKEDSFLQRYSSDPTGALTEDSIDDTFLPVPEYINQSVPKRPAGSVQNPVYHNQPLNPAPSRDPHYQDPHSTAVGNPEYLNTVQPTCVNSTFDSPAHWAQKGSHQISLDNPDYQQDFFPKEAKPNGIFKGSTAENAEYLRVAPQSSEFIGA
Summary of the method: as §1

EGFR L858R/T790M mutant = EGFR L858R/T790M mutant (Homo sapiens (Human), UniProt P00533, L858R/T790M); experiment: HotSpot radiometric kinase assay, EGFR L858R/T790M mutant; details: 10 μM ATP
Chain of EGFR L858R/T790M mutant (P00533 25-1210 T790M/L858R): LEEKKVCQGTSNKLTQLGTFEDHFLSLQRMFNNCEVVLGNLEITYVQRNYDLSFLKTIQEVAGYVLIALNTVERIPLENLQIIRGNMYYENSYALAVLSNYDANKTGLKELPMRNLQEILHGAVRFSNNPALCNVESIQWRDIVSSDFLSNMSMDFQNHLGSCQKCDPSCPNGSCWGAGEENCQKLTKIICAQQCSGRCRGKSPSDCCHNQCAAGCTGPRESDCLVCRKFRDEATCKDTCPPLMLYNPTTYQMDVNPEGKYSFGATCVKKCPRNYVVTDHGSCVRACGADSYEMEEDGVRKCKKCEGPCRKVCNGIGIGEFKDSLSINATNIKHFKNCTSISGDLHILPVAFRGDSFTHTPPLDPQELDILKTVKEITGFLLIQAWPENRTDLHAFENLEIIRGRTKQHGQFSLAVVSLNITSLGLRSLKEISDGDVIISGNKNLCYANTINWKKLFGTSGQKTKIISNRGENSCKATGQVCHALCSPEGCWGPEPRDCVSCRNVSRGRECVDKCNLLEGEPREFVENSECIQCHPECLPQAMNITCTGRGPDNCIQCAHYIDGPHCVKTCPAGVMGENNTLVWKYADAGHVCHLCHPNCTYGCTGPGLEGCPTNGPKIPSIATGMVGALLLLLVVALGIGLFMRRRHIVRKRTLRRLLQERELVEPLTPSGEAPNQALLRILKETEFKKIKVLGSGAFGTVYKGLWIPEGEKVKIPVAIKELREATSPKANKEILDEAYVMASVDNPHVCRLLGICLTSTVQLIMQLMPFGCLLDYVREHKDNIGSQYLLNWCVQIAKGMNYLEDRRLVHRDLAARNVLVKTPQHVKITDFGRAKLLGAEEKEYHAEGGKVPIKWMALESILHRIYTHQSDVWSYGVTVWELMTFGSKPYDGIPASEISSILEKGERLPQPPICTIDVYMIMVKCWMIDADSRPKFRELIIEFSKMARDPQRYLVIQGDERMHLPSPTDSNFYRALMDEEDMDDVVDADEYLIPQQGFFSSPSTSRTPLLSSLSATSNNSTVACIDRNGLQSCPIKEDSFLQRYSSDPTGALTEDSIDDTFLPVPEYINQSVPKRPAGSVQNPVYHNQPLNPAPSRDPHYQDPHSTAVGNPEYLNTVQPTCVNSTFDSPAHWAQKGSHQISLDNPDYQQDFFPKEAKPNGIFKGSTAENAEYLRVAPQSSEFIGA
Summary of the method: as §1

EGFR WT = EGFR WT (Homo sapiens (Human), UniProt P00533); experiment: HotSpot radiometric kinase assay (Reaction Biology), EGFR WT; details: 10 μM ATP
Summary of the method: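 Radiometric filter-binding read-out: incorporated 33P was retained on P81 ion-exchange paper after washing away unbound phosphate. Reactions ran 120 min at room temperature with 10 μM final ATP, following ~20 min compound preincubation in Hepes pH 7.5 buffer containing 1% DMSO. IC50 from fitted curves.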

EGFR (D770_N771insNPG) = EGFR (D770_N771insNPG) (Homo sapiens (Human), UniProt P00533, INS770NPG); experiment: HotSpot radiometric kinase assay, EGFR (D770_N771insNPG); details: 10 μM ATP, read-out: EGFR (Δ770_N771insNPG) IC50
Summary of the method: as §1

CLK4 = CLK4 (Homo sapiens (Human), UniProt Q9HAZ1); experiment: Inhibition of CLK4 kinase activity evaluated at Nanosyn (ADP-Glo); details: ADP-Glo luminescence
Summary of the method: as §2

CLK1 = CLK1 (Homo sapiens (Human), UniProt P49759); experiment: Inhibition of CLK1 kinase activity evaluated at Nanosyn (ADP-Glo); details: ADP-Glo luminescence
Summary of the method: as §2

Chain of EGFR Δ746-750/C797S mutant (P00533 other isoform, or with tags, fused parts or gaps C797S/del 1-668/del 746-750 limits assumed): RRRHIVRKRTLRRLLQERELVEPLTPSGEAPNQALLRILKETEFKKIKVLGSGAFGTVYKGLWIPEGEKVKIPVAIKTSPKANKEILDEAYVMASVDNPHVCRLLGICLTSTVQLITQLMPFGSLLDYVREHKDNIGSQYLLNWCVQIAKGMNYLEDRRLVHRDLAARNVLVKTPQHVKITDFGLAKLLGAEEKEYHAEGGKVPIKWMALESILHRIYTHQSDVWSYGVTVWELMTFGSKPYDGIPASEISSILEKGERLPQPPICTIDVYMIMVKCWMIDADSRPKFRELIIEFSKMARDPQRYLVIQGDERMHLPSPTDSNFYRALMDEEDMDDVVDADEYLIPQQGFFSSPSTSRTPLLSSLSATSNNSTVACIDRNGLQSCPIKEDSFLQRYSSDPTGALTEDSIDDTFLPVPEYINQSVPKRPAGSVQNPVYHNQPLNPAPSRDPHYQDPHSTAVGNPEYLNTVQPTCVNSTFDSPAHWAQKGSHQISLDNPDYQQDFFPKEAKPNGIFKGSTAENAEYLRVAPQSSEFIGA

| IC50 [1] [nM] | IC50 (EGFR Δ746-750 mutant) [nM] | IC50 (CLK3) [nM] | IC50 (CLK2) [nM] | IC50 (EGFR L858R mutant) [nM] | IC50 (ALK) [nM] | IC50 [2] [nM] | IC50 (EGFR L858R/T790M mutant) [nM] | IC50 (EGFR WT) [nM] | IC50 (EGFR (D770_N771insNPG)) [nM] | IC50 (CLK4) [nM] | IC50 (CLK1) [nM] | Compound |
| --- | --- | --- | --- | --- | --- | --- | --- | --- | --- | --- | --- | --- |
| 1.93 | 4.08 | 194 | 1 | 2.01 | 1.49 | 0.69 | 1.41 | 6.46 | 59.9 | 1.53 | 0.48 | CC(C)Oc1nn([C@@H](C)CO)c2c1/C=C/c1n[nH]c3cc(F)c(cc13)-c1cnn(C)c1O[C@@H](C)CN(C)C2 [Example 200, (2S)-2-{(10S,17E)-19-fluoro-8,10,12-trimethyl-16-[(propan-2-yl)oxy]-2,8,10,11,12,13-hexahydro-14H-3,5-ethenotripyrazolo[3,4-f:3′,4′-j:4″,3″-n][1,4]oxazacyclopentadecin-14-yl}propan-1-ol] |
| 0.63 | 0.47 | 115 | 1.28 | 2.22 | 2.04 | 0.37 | 0.44 | 2.43 | 28.9 | 5.39 | 2.02 | CCN1Cc2c(c(OC(C)C)nn2CCO)/C=C/c2n[nH]c3cc(F)c(cc23)-c2cnn(C)c2O[C@@H](C)C1 [Example 216, 2-{(10S,17E)-12-ethyl-19-fluoro-8,10-dimethyl-16-[(propan-2-yl)oxy]-2,8,10,11,12,13-hexahydro-14H-3,5-ethenotripyrazolo[3,4-f:3′,4′-j:4″,3″- n][1,4]oxazacyclopentadecin-14-yl}ethan-1-ol] |
| 5.13 | 3.02 | 146 | 4.51 | 4.73 | 1.31 | 3.84 | 5.3 | 7.25 | 21.2 | 5.62 | 2.05 | CCN1Cc2c(c(OC(C)C)nn2[C@@H](C)CO)/C=C/c2n[nH]c3cc(F)c(cc23)-c2cnn(C)c2O[C@@H](C)C1 [Example 219, (2S)-2-{(10S,17E)-12-ethyl-19-fluoro-8,10-dimethyl-16-[(propan-2-yl)oxy]-2,8,10,11,12,13-hexahydro-14H-3,5-ethenotripyrazolo[3,4-f:3′,4′-j:4″,3″- n][1,4]oxazacyclopentadecin-14-yl}propan-1-ol] |
|  |  | 131 | 0.24 |  | 1.82 |  |  |  |  | 1.31 | 0.32 | CCOc1nn(CCO)c2c1/C=C/c1n[nH]c3cc(F)c(cc13)-c1cnn(C)c1O[C@@H](C)CN(CC)C2 [Example 288, 2-[(10S,17E)-16-ethoxy-12-ethyl-19-fluoro-8,10-dimethyl-2,8,10,11,12,13-hexahydro-14H-3,5-ethenotripyrazolo[3,4-f:3′,4′-j:4″,3″- n][1,4]oxazacyclopentadecin-14-yl]ethan-1-ol] |

Continued, molecule first:

| Compound | IC50 [1] [nM] | IC50 (EGFR Δ746-750 mutant) [nM] | IC50 (CLK3) [nM] | IC50 (CLK2) [nM] | IC50 (EGFR L858R mutant) [nM] | IC50 (ALK) [nM] | IC50 [2] [nM] | IC50 (EGFR L858R/T790M mutant) [nM] | IC50 (EGFR WT) [nM] | IC50 (EGFR (D770_N771insNPG)) [nM] | IC50 (CLK4) [nM] | IC50 (CLK1) [nM] |
| --- | --- | --- | --- | --- | --- | --- | --- | --- | --- | --- | --- | --- |
| Cc1onc2c1/C=C/c1n[nH]c3ccc(cc13)-c1cnn(C)c1O[C@@H](C)CN(C)C2 [Example 134, (10S,17E)-8,10,12,16-tetramethyl-2,8,10,11,12,13-hexahydro-3,5-etheno[1,2]oxazolo[3,4-f]dipyrazolo[3,4-j:4′,3′-n][1,4]oxazacyclopentadecine] | 90.8 | 173 | 230 | 0.19 | 182 | 21.6 | 12.6 | 24 | 1210 | > 1000 | 0.61 | 0.29 |
| CCOc1nn(CCO)c2c1/C=C/c1n[nH]c3ccc(cc13)-c1cnn(C)c1O[C@@H](C)CN(C)C2 [Example 119, 2-[(10S,17E)-16-ethoxy-8,10,12-trimethyl-2,8,10,11,12,13-hexahydro-14H-3,5-ethenotripyrazolo[3,4-f:3′,4′-j:4″,3″-n][1,4]oxazacyclopentadecin-14-yl]ethan-1-ol] | 1.25 | 0.63 | 19.4 | 0.04 | 0.61 | 1.05 | 2.12 | 0.26 | 2.34 | 8.5 | 0.33 | 0.14 |
| Cc1c2c(nn1C)CN(C)C[C@H](C)Oc1c(cnn1C)-c1ccc3[nH]nc(c3c1)/C=C/2 [Example 58, (10S,17E)-8,10,12,15,16-pentamethyl-2,10,11,12,13,15-hexahydro-8H-3,5-ethenotripyrazolo[3,4-f:3′,4′-j:4″,3″- n][1,4]oxazacyclopentadecine] | 7.29 | 11.1 | 160 | 0.38 | 9.29 | 4.79 | 1.57 |  | 49.2 | 222 | 0.53 | 0.2 |
| C[C@H]1CN(C)Cc2c(c(OCC#N)nn2C)/C=C/c2n[nH]c3ccc(cc23)-c2cnn(C)c2O1 [Example 163, {[(10S,17E)-8,10,12,14-tetramethyl-2,10,11,12,13,14-hexahydro-8H-3,5-ethenotripyrazolo[3,4-f:3′,4′-j:4″,3″-n][1,4]oxazacyclopentadecin-16-yl]oxy}acetonitrile] | 4.72 | 7.33 | 215 | 0.06 | 8.2 | 1.13 | 0.86 | 0.85 | 29.6 | 52 | 0.63 | 0.28 |
| CC(C)Oc1nn(CCO)c2c1/C=C/c1n[nH]c3ccc(cc13)-c1cnn(C)c1O[C@@H](C)CN(C)C2 [Example 147, 2-{(10S,17E)-8,10,12-trimethyl-16-[(propan-2-yl)oxy]-2,8,10,11,12,13-hexahydro-14H-3,5-ethenotripyrazolo[3,4-f:3′,4′-j:4″,3″-n][1,4]oxazacyclopentadecin-14-yl}ethan-1-ol] | 0.39 | 0.59 | 5.21 | 0.02 | 0.44 | 0.99 | 0.19 | 0.11 | 3.16 | 9.08 | 0.32 | 0.13 |
| C[C@H]1CN(C)Cc2c(c(C#N)nn2C)/C=C/c2n[nH]c3ccc(cc23)-c2cnn(C)c2O1 [Example 159, (10S,17E)-8,10,12,14-tetramethyl-2,10,11,12,13,14-hexahydro-8H-3,5-ethenotripyrazolo[3,4-f:3′,4′-j:4″,3″-n][1,4]oxazacyclopentadecine-16-carbonitrile] | 14.1 | 27 | 1000 | 0.07 | 34.7 | 3.72 | 0.74 | 1.54 | 160 | 116 | 0.38 | 0.14 |
| Cc1nn(C)c2c1/C=C/c1n[nH]c3ccc(cc13)-c1cnn(C)c1O[C@@H](C)CN(C)C2 [Example 120, (10S,17E)-8,10,12,14,16-pentamethyl-2,10,11,12,13,14-hexahydro-8H-3,5-ethenotripyrazolo[3,4-f:3′,4′-j:4″,3″- n][1,4]oxazacyclopentadecine] | 5.8 | 7.76 | 112 | 0.08 | 7.91 | 1.82 | 2.62 | 0.33 | 41.3 | 99.8 | 0.27 | 0.12 |
